Test results from patent publication US11439637B2, “Antiproliferative compounds and bispecific antibody against BCMA and CD3 for combined use” (Celgene Corporation, priority 2018, dated 2022).
“Also recorded” adds a separate entry of the source.

Assays:
[1] = system: multiple myeloma H929 cell line; assay: Co-cultures of effector T cells and target cells after pretreatment with compounds, bispecific antibody-induced target cell killing (H929); assay type: cell-based, human; details: H929 target cells pretreated with Compound 2 (1 nM) for 72 hours, washed; co-culture 72 hours, E:T 1:3; vs DMSO
Description: (§1) CD3+ T-cells were isolated from peripheral blood mononuclear cell fractions from healthy donors using magnetic-activated cell sorting. Cells were thawed in RPMI 1640 culture media supplemented with 10% (v/v) fetal bovine serum (FBS), non-essential amino acids and sodium pyruvate. All cell cultures and cell treatments were performed in a 37° C., 5% CO2 incubator for time periods as indicated. T-cells were then labeled with CFSE (carboxyfluorescein succinimidyl ester) according to the manufacturer's instructions, and allowed to recover overnight in the presence of 1 ng/mL human IL-7. T-cells were treated with DMSO (control) or Compound 2 as single agent for 16 hours before co-culture. The multiple myeloma H929 and OPM-2 cell lines or the plasma cell leukemia (PCL) cell line L363 were labeled with CellTrace™ Violet, then pretreated with DMSO (control) or Compound 2 as a single agent for 72 hours. T-cells and target cells were then washed to remove compounds and co-cultured in the presence of increasing concentrations of a bispecific antibody specifically binding to human B cell maturation antigen (BCMA) and to human CD3ε (CD3) as provided herein, for 72 hours, at different effector T-cell (E) to target cell (T) ratios. […]

[2] = system: plasma cell leukemia (PCL) cell line L363; assay: Co-cultures of effector T cells and target cells after pretreatment with compounds, bispecific antibody-induced target cell killing (L363); assay type: cell-based, human; details: L363 target cells pretreated with Compound 2 (1 nM) for 72 hours, washed; co-culture 72 hours, E:T 1:1; vs DMSO
Description: as §1

[3] = system: multiple myeloma OPM-2 cell line; assay: Co-cultures of effector T cells and target cells after pretreatment with compounds, cytotoxicity assays with OPM-2 cells; assay type: cell-based, human; details: E:T 1:5
Description: CD3+ T-cells were isolated from peripheral blood mononuclear cell fractions from healthy donors using magnetic-activated cell sorting. Cells were thawed in RPMI 1640 culture media supplemented with 10% (v/v) fetal bovine serum (FBS), non-essential amino acids and sodium pyruvate. All cell cultures and cell treatments were performed in a 37° C., 5% CO2 incubator for time periods as indicated. T-cells were then labeled with CFSE (carboxyfluorescein succinimidyl ester) according to the manufacturer's instructions, and allowed to recover overnight in the presence of 1 ng/mL human IL-7. T-cells were treated with DMSO (control) or Compound 2 as single agent for 16 hours before co-culture. The multiple myeloma H929 and OPM-2 cell lines or the plasma cell leukemia (PCL) cell line L363 were labeled with CellTrace™ Violet, then pretreated with DMSO (control) or Compound 2 as a single agent for 72 hours. T-cells and target cells were then washed to remove compounds and co-cultured in the presence of increasing concentrations of a bispecific antibody specifically binding to human B cell maturation antigen (BCMA) and to human CD3ε (CD3) as provided herein, for 72 hours, at different effector T-cell (E) to target cell (T) ratios. The cells were collected at the end of co-culture for analysis of target cell apoptosis and necrosis by flow cytometry using APC Annexin V Apoptosis Detection Kit with 7-AAD, following the manufacturer's directions (BioLegend).

[4] = system: multiple myeloma H929 cell line; assay: Co-cultures of effector T cells and target cells with concurrent compound treatments; assay type: cell-based, human; details: concurrent exposure to Compound 2 (1 nM) for 72 hours, T-cells of three donors, E:T 1:3, vs DMSO
Description: CD3+ T-cells were isolated from peripheral blood mononuclear cell fractions from three different healthy donors (donors A, B and C) using magnetic-activated cell sorting. Cells were thawed in RPMI 1640 culture media supplemented with 10% (v/v) FBS, non-essential amino acids, sodium pyruvate and penicillin/streptomycin. All cell cultures and treatments were performed in a 37° C., 5% CO2 incubator for time periods as indicated. T-cells were then labeled with CFSE (carboxyfluorescein succinimidyl ester) according to the manufacturer's instructions, and allowed to recover overnight in the presence of 1 ng/mL human IL-7. The multiple myeloma H929 cell line was labeled with CellTrace™ Violet, and allowed to recover overnight. T-cells and target cells were then washed and co-cultured in the presence of increasing concentrations of bispecific antibody specifically binding to human B cell maturation antigen (BCMA) and to human CD3ε (CD3) provided herein, for 72 hours, at a fixed effector T-cell (E) to target cell (T) ratio of 1:3. Co-cultures in the presence of bispecific antibody were performed in the presence of DMSO (control) or Compound 2. Cells were collected at the end of co-culture for analysis of target cell apoptosis and necrosis by flow cytometry using APC Annexin V Apoptosis Detection Kit with 7-AAD.

[5] = system: lenalidomide-resistant multiple myeloma cell line H929-1051; assay: Co-cultures of effector T cells and lenalidomide-resistant multiple myeloma target cells after pretreatment with compounds; assay type: cell-based, human; details: H929-1051 target cells pretreated 72 hours with Compound 2 (1 nM) or pomalidomide (100 nM), washed; co-culture 72 hours, E:T 1:3; vs DMSO
Source text: Co-cultures of effector T cells (E) and lenalidomide-resistant multiple myeloma target cells (T) after pretreatment with compounds. CD3+ T-cells were isolated from peripheral blood mononuclear cell fractions from three different healthy donors (donors D, E and F) using magnetic-activated cell sorting. Cells were thawed in RPMI 1640 culture media supplemented with 10% (v/v) fetal bovine serum (FBS), non-essential amino acids, sodium pyruvate and penicillin/streptomycin. All cell cultures and cell treatments were performed in a 37° C., 5% CO2 incubator for time periods as indicated. T-cells were then labeled with CFSE (carboxyfluorescein succinimidyl ester) according to the manufacturer's instructions, and allowed to recover overnight in the presence of 1 ng/mL human IL-7. The lenalidomide-resistant multiple myeloma cell line H929-1051 was generated by long-term culture in the presence of increasing concentrations of lenalidomide, as previously described (Ghandi et al. Br. J. Haematol. 2014 January; 164(2):233-44) using methods described (Lopez-Girona et al. Leukemia. 2012 November; 26(11):2326-35). H929-1051 cells were labeled with CellTrace™ Violet, then pretreated with DMSO (control), pomalidomide, or Compound 2 as a single agent for 72 hours. T-cells and target cells were then washed to remove compounds and co-cultured in the presence of increasing concentrations of the bispecific antibody specifically binding to human B cell maturation antigen (BCMA) and to human CD3ε (CD3) as provided herein, for 72 hours, at a fixed effector T-cell (E) to target cell (T) ratio of 1:3. The cells were collected at the end of co-culture for analysis of target cell apoptosis and necrosis by flow cytometry using APC Annexin V Apoptosis Detection Kit with 7-AAD, following the manufacturer's directions (BioLegend).

[6] = system: acute myeloid leukemia (AML); details: administered alone; cited from earlier work
[7] = combination of effector T-cell pretreatment and target cell pretreatment with Compound 2 (1 nM)
[8] = either effector T-cells (16 hours) or target cells (72 hours) alone pretreated with Compound 2 (1 nM)

Compound | maximal target cell killing induced by the bispecific antibody [1] | potency of the bispecific antibody [1] | potency of the bispecific antibody [2] | efficacy of the bispecific antibody [3, 7] | potentiation of the bispecific antibody [3, 7] | efficacy of target cell killing by the bispecific antibody [3, 8] | potency of target cell killing by the bispecific antibody [3, 8] | maximal efficacy of target cell killing mediated by the bispecific antibody [4] | potency of the bispecific antibody [4] | maximal target cell killing induced by the bispecific antibody [5] | potency of the bispecific antibody [5] | response in treating acute myeloid leukemia (AML) at relapse [6]
N#Cc1ccc(N2CCN(Cc3ccc(COc4cccc5c4CN([C@H]4CCC(=O)NC4=O)C5=O)cc3)CC2)c(F)c1 [Compound 2, (S)-4-(4-(4-(((2-(2,6-dioxopiperidin-3-yl)-1-oxoisoindolin-4-yl)oxy)methyl)benzyl)piperazin-1-yl)-3-fluorobenzonitrile] | significantly increased | significantly increased | significantly increased | increase in efficacy | greatest potentiation | increased | increased | improved; also recorded: enhances | significantly increased; also recorded: enhances | increased; also recorded: enhances | increased; also recorded: enhances | 
CT-011: anti-PD-1 antibody, a humanized antibody |  |  |  |  |  |  |  |  |  |  |  | failed to show response
Nc1cccc2c1C(=O)N(C1CCC(=O)NC1=O)C2=O (stereo not shown) [pomalidomide, reference compound] |  |  |  |  |  |  |  |  |  | not |  | 
